Data published in patent US12569502B2, “Use of bile acids and derivatives thereof in preparation of GPR39 agonist” (PEKING UNIVERSITY, priority 2019, dated 2026).
Substitutions are numbered along the chain they refer to. Read-outs that look alike come from different tables or passages of the source.

Experiments:
[1] = molecular target: T1, GPR39 receptors on m39-20 cell lines (Mus musculus, UniProt Q5U431, T447P); assay: FLIPR calcium imaging on m39-20 cell lines stably expressing murine-derived GPR39; format: cell-based; settings: for intracellular calcium signals in m39-20 cell lines: FIG. 1
T1 construct: P2A-mCherry (C); expressed in transfected cells
T1 sequence (Q5U431 1-456 T447P): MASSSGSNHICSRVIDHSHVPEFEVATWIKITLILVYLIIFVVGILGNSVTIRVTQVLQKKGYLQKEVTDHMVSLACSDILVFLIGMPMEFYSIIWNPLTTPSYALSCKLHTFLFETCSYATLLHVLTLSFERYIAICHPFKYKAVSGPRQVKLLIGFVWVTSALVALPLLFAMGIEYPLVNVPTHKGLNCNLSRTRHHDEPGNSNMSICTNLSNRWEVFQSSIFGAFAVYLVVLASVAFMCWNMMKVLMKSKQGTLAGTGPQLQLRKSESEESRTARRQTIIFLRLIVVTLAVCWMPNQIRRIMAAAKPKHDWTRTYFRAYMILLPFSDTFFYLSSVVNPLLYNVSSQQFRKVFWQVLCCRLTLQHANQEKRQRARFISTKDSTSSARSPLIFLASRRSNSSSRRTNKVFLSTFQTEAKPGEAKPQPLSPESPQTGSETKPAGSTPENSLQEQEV
Description: Intracellular calcium imaging is a routine technique to study cell functions, the basic principle of which is to detect the concentration of the calcium ion in tissues or cells using a calcium indicator, thereby reflecting certain reactions in the tissues or cells. In the present application, the intracellular calcium released from a cell line that stably or transiently expresses GPR39 is detected using Fluo8-AM, a calcium fluorescent indicator, so as to determine the activation of the GPR39 receptor by the bile acid and derivative thereof.
HEK293T cells (purchased from ATCC) were seeded in a 6-well plate (coming Co.) at an appropriate density (about 0.5-2×10^5/well). When the cell density reached above 30%, the plasmid PLVXK-mGPR39-P2A-mCherry was transfected with Lipofectamine 3000 (Invitrogen) at a concentration of 2 μg per well. The cells were passaged 24 hours after transfection, the puromycin (gibco) was added into the medium at a concentration of 2 μg/mL for antibiotic screening of cells. After 2-4 days of continuous screening, the cells screened for puromycin resistance were trypsinized and screened by flow cytometry for monoclones with red fluorescence. And these monoclones were seeded in a 96-well plate and cultured in a medium without puromycin for around 10 days. Cell colonies with red fluorescence were sorted under a fluorescence microscope, trypsinized and then passaged and expanded in a 6-well plate. Cell lines m39-20 stably expressing murine-derived GPR39 were obtained through the above methods.
Calcium dye Fluo8-AM (ATT bioquest Co.) was dissolved in DMSO solvent to formulate a stock solution of 1 μg/μL. […] After then, the calcium dye working solution was replaced with the 4K solution (50 μL per well), and acclimated for 5 min at room temperature for the subsequent calcium imaging experiment.
Bile acids and derivatives thereof as listed in Table 1 below were dissolved in dimethyl sulfoxide (DMSO, Sigma Co.) solvent to formulate a stock solution of 50 mM, which was stored at −20° C. During calcium imaging with FLIPR, the drug was diluted with the above 4K solution into a working concentration of 400 μM, and packaged into another 96-well plate. […] The instrument parameters were set so that 50 μL of the drug solution may be added into the culture wells within 2 s. The fluorescence recording result within the first 30 seconds was used as the baseline value. The FLIPR robot arm was programmed to automatically add bile acids and derivatives thereof into the cell sample culture wells at the 31st second. 1% of DMSO solvent was used as the blank control.
After that, the calcium dye working solution was replaced with a 4K solution containing 4 μM zinc ions (50 μL per well), followed by acclimation for 5 min at room temperature.

[2] = molecular target: T2, murine-derived wild-type (WT) GPR39 (Mus musculus, UniProt Q5U431); assay: Calcium imaging on 293T cells transiently transfected with wild-type GPR39; format: cell-based; settings: transiently transfected HEK293T cells
T2 construct: 3HA (N); P2A-mCherry (C); expressed in transfected cells; host or cells: HEK293T, transient (Lipofectamine 3000)
T2 sequence (Q5U431 1-456): T1 sequence (Q5U431 1-456 T447P) with P447T
Description: In the present application, the bile acid and/or derivative thereof is capable of activating the GPR39 independent of a zinc ion binding site. For example, in some embodiments, murine-derived wild-type (WT) GPR39 or zinc ion binding site mutant (H17A and H19A) GPR39 are transiently expressed in 293T cells by using lipofectamine3000 transfection kit. The activation effect of LCAS on the wild-type (WT) and mutants (H17A and H19A) is detected by calcium imaging.
HEK293T cells were seeded in a PDL-coated 96-well plate (coring Co.) at an appropriate density (about 3×10^4 cells/well) and cultured under conditions of 37° C. and 5% CO2. 24 h after seeding, when the cell density reached 60%-70%, Lipofectamine 3000 (Invitrogen) was used for transfection, in which the concentration of plasmid transfection was 50 ng per well. […] 2) Zinc ions […] on the activation of mutants H17A and H19A of GPR39 by LCAS.

Row | SMILES | intracellular calcium signals in m39-20 cell lines [1] | EC50 ([2]; agonist alone) | EC50 ([1]; Bile acid + 4 μM zinc ions EC50, m39-20 cells, 4 μM zinc ions) | intracellular calcium signaling response in m39-20 cells ([1]; absence of zinc ions) | Only bile acid Efficacy ([1]; activation efficacy, m39-20 cells, no zinc ions) | change of activation efficacy after the addition of zinc ions ([1]; m39-20 cells, Table 1, FIG. 2) | activation capacity on GPR39 receptors among the bile acids ([1]; m39-20 cells, dose curves) | EC50 ([1]; m39-20 cells, no zinc ions, read-out: Only bile acid EC50) | EC50 ([1]; m39-20 cells, zinc ions 0 μM, read-out: EC50) | EC50 ([1]; m39-20 cells, zinc ions 0.05 μM, read-out: EC50) | EC50 ([1]; m39-20 cells, zinc ions 0.1 μM, read-out: EC50) | EC50 ([1]; m39-20 cells, zinc ions 0.2 μM, read-out: EC50) | EC50 ([1]; m39-20 cells, zinc ions 0.4 μM, read-out: EC50) | EC50 ([1]; m39-20 cells, zinc ions 1 μM, read-out: EC50) | EC50 ([1]; m39-20 cells, zinc ions 2 μM, read-out: EC50) | EC50 ([1]; m39-20 cells, zinc ions 4 μM, read-out: EC50) | EC50 ([2]; + 4 μM zinc ions)
1 | [Zn+2] [Zinc ions, reference compound] | inducing intracellular calcium signals | 12 ± 5.3 µM | – | – | – | – | – | – | – | – | – | – | – | – | – | – | –
2 | C[C@H](CCC(=O)O)[C@H]1CC[C@H]2[C@@H]3CC[C@@H]4C[C@H](OS(=O)(=O)O)CC[C@]4(C)[C@H]3CC[C@]12C [LCAS] | varying extents of intracellular calcium signals | 33.1 ± 5.1 µM | 0.88 ± 0.16 µM | strong intracellular calcium signaling response | 111.1 ± 3.9% | increases slightly | strongest activation capacity | 41 ± 4.5 µM | 31 ± 2.1 µM | 30.7 ± 2.4 µM | 30.6 ± 2 µM | 25.4 ± 1.1 µM | 20.1 ± 0.67 µM | 6.4 ± 0.67 µM | 1.9 ± 0.03 µM | 0.7 ± 0.03 µM | 5.2 ± 0.7 µM
